# Reference: patent US20220236255A1, “Self-Contained Responsive Biological Systems and Methods” (Arizona Board of Regents on Behalf of the University of …, priority 2019, published 2022)
# Like-named read-outs stand apart in the source and are kept apart here.
# What was measured:
# SK-MEL-28 cells = experiment: Modified MTT drug response assay, withaferin A, 72 hours; assay type: cell-based, human; conditions: WFA 72 hours, read-out: IC50 (concentration resulting in 50% of cell death)
# Procedure: A modified MTT experiment was developed from CellTiter 96 NonRadioactive Cell Proliferation Assay kit (Promega). Treated leaves were cut into 1×1 cm sized pieces and fit to the bottom of an untreated 48-well plate. 0.75×0.75 cm inserts were placed in the well on the top of the leaf, cells were plated at 10,000 cells/insert and incubated at 37° C. with 5% CO2 atmosphere. After 24 hours, the inserts were removed and leaves with attached cells were cut and re-plated into non-treated 96-well plates. In parallel, cells were also directly seeded into a treated 96-well plate at a concentration of 5000 cells/well. The medium was refreshed every 72 hours. Tetrazolium component was added at day 1, 3, 5 and 7 and absorbance of formazan product was measured at 570 nm by using Epoch microplate spectrophotometer (Biotek Instruments). For the drug response assay, withaferin A (WFA) was added at concentrations ranging from 0.156 to 40 μM and incubated for 72 hours prior to the addition of the […]. […]
# Microphthalmia-associated Transcription Factor (MITF) is a lineage-determining transcription factor critical for regulation of the melanocytic lineage during development and implicated as both a melanoma tumor suppressor and oncogene. […] Gene expression was then analyzed by qRT-PCR for MITF and three genes of the MITF-high expression signature (SOX10, MLANA and TYR). […]
# [1] = test system: organoids of GFP-tagged glioblastoma U87 cells and RFP-tagged neural progenitor cells (NPCs); experiment: Organoid fluorescence (cell viability) after everolimus pre-treatment and irradiation; assay type: cell-based, human; conditions: 10 nM everolimus for 24 hours before 2 Gy-irradiation; over one week
# Procedure: (§1) Thus, the effect of a rapamycin analog, everolimus, on human cells was investigated using an in vitro organoids model. GFP-tagged glioblastoma U87 cells were cultured in presence of RFP-tagged neural progenitor cells (NPCs), differentiated from dermal fibroblasts reprogrammed to induced pluripotent stem cells, to form organoids. The organoids were exposed to 10 nM everolimus for 24 hours before 2 Gy-irradiation. […] This has been confirmed by qRT-PCR where Glast mRNA level (glioblastoma biomarker) decreases whereas SOX2 and Nestin mRNA levels (NPCs biomarkers) increase in irradiated organoids pre-treatment with everolimus (FIGS. 27A-27C).
# [2] = test system: Glast, SOX2 and Nestin mRNA in U87/NPC organoids; experiment: qRT-PCR of biomarker mRNA in everolimus-treated irradiated organoids; assay type: cell-based, human; conditions: irradiated organoids pre-treated with everolimus; qRT-PCR at day 10 after irradiation
# Procedure: as §1
# [3] = test system: RFP-transfected dermal fibroblasts spheroids; experiment: Growth of irradiated dermal fibroblast spheroids pre-treated with everolimus; assay type: cell-based; conditions: everolimus 24 h before 4 Gy-irradiation; growth monitored for 8 days
# Procedure: FIG. 33 RFP-transfected dermal fibroblasts spheroids have been exposed to different concentrations of everolimus 24 h before 4 Gy-irradiation and their growth monitored for 8 days.
Compound,IC50 (SK-MEL-28 cells; SK-MEL-28 cells seeded on decellularized spinach leaf scaffold) [µM],IC50 (SK-MEL-28 cells; SK-MEL-28 cells seeded on stiff substrate (TCPS)) [µM],GFP fluorescence intensity (U87 cells) compared to vehicle-treated organoids after irradiation [1],RFP fluorescence signal (NPCs) compared to vehicle-treated organoids after irradiation [1],Glast mRNA level (glioblastoma biomarker) [2],Nestin mRNA level (NPCs biomarker) [2],SOX2 mRNA level (NPCs biomarker) [2],growth of irradiated spheroids compared to non-pretreated spheroids [3]
"CC1=C(CO)C(=O)O[C@@H]([C@@H](C)[C@H]2CC[C@H]3[C@@H]4C[C@H]5O[C@]56[C@@H](O)C=CC(=O)[C@]6(C)[C@H]4CC[C@]23C)C1 [WFA, withaferin A]",5.2,1.1,,,,,,
CO[C@H]1C[C@@H]2CC[C@@H](C)[C@@](O)(O2)C(=O)C(=O)N2CCCC[C@H]2C(=O)O[C@H]([C@H](C)C[C@@H]2CC[C@@H](OCCO)[C@H](OC)C2)CC(=O)[C@H](C)/C=C(\C)[C@@H](O)[C@@H](OC)C(=O)[C@H](C)C[C@H](C)/C=C/C=C/C=C/1C [everolimus],,,decreases,increases,decreases,increase,increase,increased
